From patent US9446039B2, “Aminoheteroaryl compounds as MTH1 inhibitors” (CEMM—FORSCHUNGSZENTRUM FÜR MOLEKULARE MEDIZIN GMBH, priority 2012, dated 2016)

Legend:
Assay type in all cases: binding
[1] = molecular target: SW480 colon carcinoma cells lysate proteins (Homo sapiens, UniProt P67936); details: PreyGene TPM4
[2] = molecular target: SW480 colon carcinoma cells lysate proteins (Homo sapiens, UniProt Q9BQE3); details: PreyGene TUBA1C; SW480 cells
[3] = molecular target: T1, SW480 colon carcinoma cells lysate proteins (Homo sapiens, UniProt P32119); details: PreyGene PRDX2
T1 sequence (P32119 1-198): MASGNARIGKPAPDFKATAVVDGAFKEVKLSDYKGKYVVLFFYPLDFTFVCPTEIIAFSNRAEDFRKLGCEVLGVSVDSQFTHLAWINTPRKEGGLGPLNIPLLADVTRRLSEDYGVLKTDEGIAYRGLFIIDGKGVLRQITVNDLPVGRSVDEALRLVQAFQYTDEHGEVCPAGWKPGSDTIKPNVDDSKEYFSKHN

[4] = molecular target: T2, SW480 colon carcinoma cells lysate proteins (Homo sapiens, UniProt Q15293); details: PreyGene RCN1
T2 sequence (Q15293 30-331): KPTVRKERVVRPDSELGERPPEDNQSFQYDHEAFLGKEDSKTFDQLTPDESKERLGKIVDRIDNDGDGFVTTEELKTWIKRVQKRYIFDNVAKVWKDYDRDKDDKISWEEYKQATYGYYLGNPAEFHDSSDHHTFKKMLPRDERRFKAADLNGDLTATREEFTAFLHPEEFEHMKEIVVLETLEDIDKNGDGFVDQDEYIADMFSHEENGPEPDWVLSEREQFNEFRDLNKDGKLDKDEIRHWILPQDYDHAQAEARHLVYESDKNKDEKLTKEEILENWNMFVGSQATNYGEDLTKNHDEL

[5] = molecular target: SW480 colon carcinoma cells lysate proteins (Homo sapiens, UniProt P18669); details: PreyGene PGAM1
Chain of SW480 colon carcinoma cells lysate proteins (Homo sapiens, UniProt P18669) (P18669 whole entry): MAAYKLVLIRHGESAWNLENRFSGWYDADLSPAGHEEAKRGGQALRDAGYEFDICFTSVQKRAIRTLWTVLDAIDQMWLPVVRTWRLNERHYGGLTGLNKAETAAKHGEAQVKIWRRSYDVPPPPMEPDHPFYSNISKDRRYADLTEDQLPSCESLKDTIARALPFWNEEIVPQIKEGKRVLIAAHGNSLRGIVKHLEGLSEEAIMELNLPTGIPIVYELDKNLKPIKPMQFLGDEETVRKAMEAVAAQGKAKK

[6] = molecular target: T3, SW480 colon carcinoma cells lysate proteins (Homo sapiens, UniProt P04075); details: PreyGene ALDOA
T3 sequence (P04075 1-364): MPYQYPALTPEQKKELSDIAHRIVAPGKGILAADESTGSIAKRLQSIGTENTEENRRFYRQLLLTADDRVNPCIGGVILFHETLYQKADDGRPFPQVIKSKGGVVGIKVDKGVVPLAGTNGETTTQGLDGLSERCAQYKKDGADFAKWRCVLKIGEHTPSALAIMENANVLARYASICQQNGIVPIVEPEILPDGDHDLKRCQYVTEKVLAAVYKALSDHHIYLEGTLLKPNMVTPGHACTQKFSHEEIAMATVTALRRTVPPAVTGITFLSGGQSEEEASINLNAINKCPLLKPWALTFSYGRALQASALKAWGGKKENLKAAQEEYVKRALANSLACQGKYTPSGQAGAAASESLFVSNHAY

[7] = molecular target: T4, SW480 colon carcinoma cells lysate proteins (Homo sapiens, UniProt P54577); details: PreyGene YARS
T4 sequence (P54577 1-528): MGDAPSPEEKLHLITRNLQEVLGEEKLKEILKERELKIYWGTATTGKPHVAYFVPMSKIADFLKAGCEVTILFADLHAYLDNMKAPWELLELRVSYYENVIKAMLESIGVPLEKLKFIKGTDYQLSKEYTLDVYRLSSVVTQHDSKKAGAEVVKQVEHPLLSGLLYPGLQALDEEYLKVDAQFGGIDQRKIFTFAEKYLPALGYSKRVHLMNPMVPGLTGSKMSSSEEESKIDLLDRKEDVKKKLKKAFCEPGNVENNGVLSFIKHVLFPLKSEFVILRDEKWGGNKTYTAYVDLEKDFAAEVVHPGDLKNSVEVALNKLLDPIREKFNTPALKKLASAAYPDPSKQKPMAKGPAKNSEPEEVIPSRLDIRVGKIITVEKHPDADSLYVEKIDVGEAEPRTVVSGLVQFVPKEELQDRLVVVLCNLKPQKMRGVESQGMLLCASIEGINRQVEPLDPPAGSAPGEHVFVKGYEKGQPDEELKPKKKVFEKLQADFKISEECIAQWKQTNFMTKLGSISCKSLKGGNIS

[8] = molecular target: SW480 colon carcinoma cells lysate proteins (Homo sapiens, UniProt Q92598); details: PreyGene HSPH1
Chain of SW480 colon carcinoma cells lysate proteins (Homo sapiens, UniProt Q92598) (Q92598 whole entry): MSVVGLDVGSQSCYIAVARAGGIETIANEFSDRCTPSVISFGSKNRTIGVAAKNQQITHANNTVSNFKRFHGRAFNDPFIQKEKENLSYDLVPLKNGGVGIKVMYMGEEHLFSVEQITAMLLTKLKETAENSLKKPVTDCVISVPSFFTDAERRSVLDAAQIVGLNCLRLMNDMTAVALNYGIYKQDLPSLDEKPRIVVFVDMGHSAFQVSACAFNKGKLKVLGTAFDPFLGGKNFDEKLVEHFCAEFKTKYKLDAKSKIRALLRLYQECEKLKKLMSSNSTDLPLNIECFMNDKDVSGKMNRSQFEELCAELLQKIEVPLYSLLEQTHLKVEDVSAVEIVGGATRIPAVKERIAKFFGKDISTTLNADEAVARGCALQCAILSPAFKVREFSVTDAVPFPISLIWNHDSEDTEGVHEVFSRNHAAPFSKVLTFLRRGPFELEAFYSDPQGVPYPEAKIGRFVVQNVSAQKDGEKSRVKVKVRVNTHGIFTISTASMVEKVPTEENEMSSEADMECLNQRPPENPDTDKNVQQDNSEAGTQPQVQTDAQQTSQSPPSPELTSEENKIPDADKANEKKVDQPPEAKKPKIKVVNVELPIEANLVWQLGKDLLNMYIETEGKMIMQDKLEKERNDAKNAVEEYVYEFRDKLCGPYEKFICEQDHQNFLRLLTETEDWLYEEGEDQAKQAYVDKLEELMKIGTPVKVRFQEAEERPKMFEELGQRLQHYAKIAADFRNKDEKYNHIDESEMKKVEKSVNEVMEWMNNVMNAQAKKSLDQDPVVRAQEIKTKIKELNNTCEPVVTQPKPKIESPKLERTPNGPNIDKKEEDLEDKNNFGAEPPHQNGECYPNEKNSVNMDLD

Chain of SW480 colon carcinoma cells lysate proteins (Homo sapiens, UniProt P67936) (P67936 whole entry): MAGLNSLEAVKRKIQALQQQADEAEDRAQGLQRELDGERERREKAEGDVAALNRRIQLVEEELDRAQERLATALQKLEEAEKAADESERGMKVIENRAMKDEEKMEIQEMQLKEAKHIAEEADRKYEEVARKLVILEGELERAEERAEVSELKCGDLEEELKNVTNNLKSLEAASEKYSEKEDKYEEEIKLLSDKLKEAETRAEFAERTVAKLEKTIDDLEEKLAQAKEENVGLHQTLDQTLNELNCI
Chain of SW480 colon carcinoma cells lysate proteins (Homo sapiens, UniProt Q9BQE3) (Q9BQE3 whole entry): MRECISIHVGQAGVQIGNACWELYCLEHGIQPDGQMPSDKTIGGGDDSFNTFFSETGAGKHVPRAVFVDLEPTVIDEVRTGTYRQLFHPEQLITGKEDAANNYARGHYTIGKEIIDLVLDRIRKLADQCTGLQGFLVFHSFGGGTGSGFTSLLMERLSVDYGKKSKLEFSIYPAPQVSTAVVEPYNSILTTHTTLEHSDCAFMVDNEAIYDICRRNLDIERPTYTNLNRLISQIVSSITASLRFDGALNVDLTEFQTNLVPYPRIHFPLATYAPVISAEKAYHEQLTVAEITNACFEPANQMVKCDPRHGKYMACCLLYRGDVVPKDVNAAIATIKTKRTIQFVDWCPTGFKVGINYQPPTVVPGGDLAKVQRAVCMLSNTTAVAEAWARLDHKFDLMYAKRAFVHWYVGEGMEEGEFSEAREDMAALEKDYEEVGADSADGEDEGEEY

C[C@H](Oc1cc(-c2cnn(C3CCNCC3)c2)cnc1N)c1c(Cl)ccc(F)c1Cl [(5)-crizotinib]
AvgP [1]: 0.4193
SC.Exp. 1-1 [1]: 5
SC.Exp. 1-2 [1]: 2
SC.Exp. 2-1 [1]: 0
SC.Exp. 2-2 [1]: 0
Sum (SC.Exp.) [1]: 7
AvgP [2]: 0
SC.Exp. 1-1 [2]: 1
SC.Exp. 1-2 [2]: 1
SC.Exp. 2-1 [2]: 0
SC.Exp. 2-2 [2]: 1
SC.Exp. Sum [2]: 3
AvgP [3]: 0.3255
SC.Exp. 1-1 [3]: 4
SC.Exp. 1-2 [3]: 4
SC.Exp. 2-1 [3]: 0
SC.Exp. 2-2 [3]: 0
Sum (SC.Exp.) [3]: 8
AvgP [4]: 0.4191
SC.Exp. 1-1 [4]: 4
SC.Exp. 1-2 [4]: 4
SC.Exp. 2-1 [4]: 0
SC.Exp. 2-2 [4]: 0
Sum (SC.Exp.) [4]: 8
AvgP [5]: 0.4721
SC.Exp. 1-1 [5]: 6
SC.Exp. 1-2 [5]: 6
SC.Exp. 2-1 [5]: 0
SC.Exp. 2-2 [5]: 0
Sum (SC.Exp.) [5]: 12
AvgP [6]: 0.2283
SC.Exp. 1-1 [6]: 12
SC.Exp. 1-2 [6]: 12
SC.Exp. 2-1 [6]: 2
SC.Exp. 2-2 [6]: 0
Sum (SC.Exp.) [6]: 26
AvgP [7]: 0.2511
SC.Exp. 1-1 [7]: 2
SC.Exp. 1-2 [7]: 1
SC.Exp. 2-1 [7]: 0
SC.Exp. 2-2 [7]: 0
Sum (SC.Exp.) [7]: 3
AvgP [8]: 0.4697
SC.Exp. 1-1 [8]: 7
SC.Exp. 1-2 [8]: 5
SC.Exp. 2-1 [8]: 0
SC.Exp. 2-2 [8]: 0
Sum (SC.Exp.) [8]: 12
